Measured values taken from patent publication US20230151025A1, “SUBSTITUTED THIAZOLOPYRIDINES, SALTS THEREOF AND THEIR USE AS HERBICIDALLY ACTIVE SUBSTANCES” (Bayer Aktiengesellschaft, priority 2020, published 2023).

Key:
Assay type in all cases: in vivo
Stellaria media (STEME) [1] = experiment: Herbicidal pre-emergence action (A), 1280 g/ha; details: visual grading after ca. 3 weeks vs untreated controls
Excerpt: (§1) ABUTH: Abutilon theophrasti AGSTE: Agrostis tenuis ALOMY: Alopecurus myosuroides AMARE Amaranthus retroflexus DIGSA: Digitaria sanguinalis ECHCG: Echinochloa crus-galli KCHSC: Kochia scoparia LOLRI: Lolium rigidum MATIN: Matricaria inodora POAAN: Poa annua POLCO: Polygonum convolvulus SETVI: Setaria viridis STEME: Stellaria media VERPE: Veronica persica VIOTR: Viola tricolor
(§2) Seeds of mono- and dicotyledonous weed plants were sown in plastic pots (double sowings with one species of mono- and one species of dicotyledonous weed plants per pot), in sandy loam, and covered with soil. The compounds according to the invention, formulated in the form of wettable powders (WP) or as emulsifiable concentrates (EC), were applied to the surface of the covering soil as aqueous suspension or emulsion, with the addition of 0.5% of an additive, at an application rate of 600 l of water per hectare (converted). Following treatment, the pots were placed in a greenhouse and kept under optimum growth conditions for the test plants. The visual grading of the damage to the test plants was carried out after ca. 3 weeks in comparison to untreated controls (herbicidal effect in percent (%): 100% effect=plants have died off, 0% effect=as control plants).
(§3) Tables A1 to A12, below, show the effects of selected compounds of the general formula (I) according to table 1 on various harmful plants and an application rate corresponding to 1280 g/ha obtained by the experimental procedure mentioned above.

[2] = test system: Echinochloa crus-galli (ECHCG); experiment: Herbicidal pre-emergence action (A), 1280 g/ha; details: visual grading after ca. 3 weeks vs untreated controls, 100% = plants have died off, 0% = as control plants
Excerpt: as §1, §2, §3

Poa annua (POAAN) [3] = experiment: Herbicidal pre-emergence action (A), 1280 g/ha; details: visual grading after ca. 3 weeks vs untreated controls, 100% = plants have died off, 0% = as control plants
Excerpt: as §1, §2, §3

[4] = test system: Matricaria inodora (MATIN); experiment: Herbicidal pre-emergence action (A), 1280 g/ha; details: visual grading after ca. 3 weeks vs untreated controls
Excerpt: as §1, §2, §3

Setaria viridis (SETVI) = experiment: Herbicidal pre-emergence action (A), 1280 g/ha; details: visual grading after ca. 3 weeks vs untreated controls
Excerpt: as §1, §2, §3

Stellaria media (STEME) [5] = experiment: Herbicidal post-emergence action (B), 1280 g/ha
Excerpt: as §1
(§4) Seeds of mono- and dicotyledonous weed plants were placed in plastic pots in sandy loam soil (doubly sown with in each case one species of mono- or dicotyledonous weed plants per pot), covered with soil and cultivated in a greenhouse under controlled growth conditions. 2 to 3 weeks after sowing, the test plants were treated at the one-leaf stage. The compounds of the invention, formulated in the form of wettable powders (WP) or as emulsion concentrates (EC), were applied onto the green parts of the plants as aqueous suspension or emulsion with addition of 0.5% additive at a water application rate of 600 liters per hectare (converted). After the test plants had been kept in the greenhouse under optimum growth conditions for about 3 weeks, the activity of the preparations was rated visually in comparison to untreated controls. For example, 100% activity=the plants have died, 0% activity=like control plants.
(§5) Tables B1 to B12, below, show the effects of selected compounds of the general formula (I) according to table 1 on various harmful plants and an application rate corresponding to 1280 g/ha obtained by the experimental procedure mentioned above.

[6] = test system: Kochia scoparia (KCHSC; Bassia scoparia); experiment: Herbicidal pre-emergence action (A), 1280 g/ha; details: visual grading after ca. 3 weeks vs untreated controls
Excerpt: as §1, §2, §3

[7] = test system: Amaranthus retroflexus (AMARE); experiment: Herbicidal pre-emergence action (A), 1280 g/ha; details: visual grading after ca. 3 weeks vs untreated controls
Excerpt: as §1, §2, §3

Veronica persica (VERPE) [8] = experiment: Herbicidal post-emergence action (B), 1280 g/ha
Excerpt: as §1, §4, §5

Lolium rigidum (LOLRI) = experiment: Herbicidal pre-emergence action (A), 1280 g/ha; details: visual grading after ca. 3 weeks vs untreated controls, 100% = plants have died off, 0% = as control plants
Excerpt: as §1, §2, §3

[9] = test system: Alopecurus myosuroides (ALOMY); experiment: Herbicidal pre-emergence action (A), 1280 g/ha; details: visual grading after ca. 3 weeks vs untreated controls, 100% = plants have died off, 0% = as control plants
Excerpt: as §1, §2, §3

[10] = test system: Kochia scoparia (KCHSC; Bassia scoparia); experiment: Herbicidal post-emergence action (B), 1280 g/ha
Excerpt: as §1, §4, §5

[11] = test system: Amaranthus retroflexus (AMARE); experiment: Herbicidal post-emergence action (B), 1280 g/ha; details: rated visually after about 3 weeks vs untreated controls
Excerpt: as §1, §4, §5

Poa annua (POAAN) [12] = experiment: Herbicidal post-emergence action (B), 1280 g/ha; details: rated visually after about 3 weeks vs untreated controls
Excerpt: as §1, §4, §5

[13] = test system: Digitaria sanguinalis (DIGSA); experiment: Herbicidal pre-emergence action (A), 1280 g/ha; details: visual grading after ca. 3 weeks vs untreated controls, 100% = plants have died off, 0% = as control plants
Excerpt: as §1, §2, §3

Veronica persica (VERPE) [14] = experiment: Herbicidal pre-emergence action (A), 1280 g/ha; details: visual grading after ca. 3 weeks vs untreated controls
Excerpt: as §1, §2, §3

Row | Compound | herbicidal effect STEME (Stellaria media (STEME) [1]) | POAAN, herbicidal effect in percent (%) (Poa annua (POAAN) [3]) | herbicidal effect SETVI (Setaria viridis (SETVI)) | herbicidal effect VERPE (Veronica persica (VERPE) [8]) | herbicidal activity AMARE [11] | further results
1 | Cc1nc2nc(-c3ccccc3)c(C)cc2s1 [Example I-115] | 100% | 100% | 100% |  |  | ECHCG, herbicidal effect in percent (%) [2]: 100%; herbicidal effect MATIN [4]: 90%
2 | Cc1scc(-c2ccc3scnc3n2)c1C [Example I-201] | 100% |  | 90% |  |  | herbicidal effect STEME (Stellaria media (STEME) [5]): 90%; ECHCG, herbicidal effect in percent (%) [2]: 100%; herbicidal effect KCHSC [6]: 90%
3 | Cc1cc2sc(S)nc2nc1C1=CCCCC1 [Example I-174] |  | 100% |  |  |  | herbicidal effect AMARE [7]: 100%
4 | Cc1ncsc1-c1nc2ncsc2cc1Br [Example I-204] | 90% | 90% | 100% | 90% |  | herbicidal effect AMARE [7]: 90%; ECHCG, herbicidal effect in percent (%) [2]: 90%
5 | Cc1ncccc1-c1nc2ncsc2cc1Br [Example I-129] |  | 100% | 100% |  |  | herbicidal effect AMARE [7]: 90%; LOLRI, herbicidal effect in percent (%) (Lolium rigidum (LOLRI)): 90%; herbicidal effect KCHSC [6]: 90%; ALOMY, herbicidal effect in percent (%) [9]: 90%
6 | CCc1cc2sc(OC)nc2nc1-c1ccccc1OC [Example I-097] |  |  | 100% | 100% |  | herbicidal effect STEME (Stellaria media (STEME) [5]): 100%
7 | Cc1cc2sc([S+](C)[O-])nc2nc1-c1cccc(F)c1 (stereo not drawn) [Example I-039] |  |  |  |  |  | herbicidal effect STEME (Stellaria media (STEME) [5]): 90%; herbicidal effect KCHSC [10]: 90%
8 | Cc1cc2scnc2nc1-c1c(C)sc(C)c1C [Example I-199] | 100% |  |  |  | 100% | herbicidal effect MATIN [4]: 90%
9 | C=CCNC(=O)CNc1nc2nc(-c3ccccc3F)c(Br)cc2s1 [Example I-067] |  |  |  |  | 90% | 
10 | Cc1cc2sc(Cc3ccccc3F)nc2nc1-c1ccccc1F [Example I-073] | 90% | 100% |  |  |  | 
11 | Cc1cnsc1-c1nc2ncsc2cc1Br [Example I-202] | 100% |  |  |  |  | 
12 | Cc1sc(Br)cc1-c1nc2ncsc2cc1Br [Example I-138] | 90% | 100% | 90% | 90% |  | herbicidal activity POAAN (Poa annua (POAAN) [12]): 90%; LOLRI, herbicidal effect in percent (%) (Lolium rigidum (LOLRI)): 90%
13 | CCc1cc2sc(S)nc2nc1C1=CCCCC1 [Example I-176] | 90% |  | 100% | 90% |  | herbicidal effect KCHSC [10]: 90%; herbicidal effect KCHSC [6]: 90%; DIGSA, herbicidal effect in percent (%) [13]: 90%
14 | Cc1cc2scnc2nc1-c1scnc1C [Example I-203] | 90% |  | 100% |  | 90% | herbicidal effect STEME (Stellaria media (STEME) [5]): 90%; herbicidal effect AMARE [7]: 90%; ECHCG, herbicidal effect in percent (%) [2]: 100%
15 | Cc1nc2nc(-c3cc(Br)sc3C)c(Br)cc2s1 [Example I-142] |  | 100% |  |  |  | herbicidal effect MATIN [4]: 100%
16 | Cc1ncsc1-c1nc2nc(S)sc2cc1Br [Example I-209] |  |  |  | 90% | 90% | 
17 | Cc1nc2nc(-c3ccc(F)cc3)c(C)cc2s1 [Example I-090] |  |  |  |  | 100% | herbicidal effect STEME (Stellaria media (STEME) [5]): 90%
18 | CCc1cc2sc(S)nc2nc1-c1ccccc1 [Example I-162] | 90% |  |  | 100% | 90% | herbicidal effect KCHSC [10]: 90%; herbicidal effect VERPE (Veronica persica (VERPE) [14]): 90%

Row | Compound | herbicidal effect STEME (Stellaria media (STEME) [1]) | POAAN, herbicidal effect in percent (%) (Poa annua (POAAN) [3]) | herbicidal effect SETVI (Setaria viridis (SETVI)) | herbicidal effect VERPE (Veronica persica (VERPE) [8]) | herbicidal activity AMARE [11] | further results
19 | O=C(O)CNc1nc2nc(-c3ccccc3F)c(Br)cc2s1 [Example I-052] |  |  |  |  | 100% | 
20 | Cc1nc2nc(-c3ccccc3F)ccc2s1 [Example I-019] | 90% |  |  |  |  | herbicidal effect STEME (Stellaria media (STEME) [5]): 90%
21 | Cc1cc2sc(Cc3ccccc3F)nc2nc1-c1ccccc1 [Example I-056] | 100% | 100% |  |  | 100% | herbicidal activity POAAN (Poa annua (POAAN) [12]): 100%
22 | COc1ccccc1-c1nc2nc(S)sc2cc1C [Example I-164] |  | 100% | 100% | 90% |  | herbicidal effect KCHSC [6]: 90%
23 | CCc1cc2sc([S+](C)[O-])nc2nc1-c1ccccc1 (stereo not drawn) [Example I-050] | 90% | 100% |  | 90% | 90% | herbicidal effect AMARE [7]: 90%; ECHCG, herbicidal effect in percent (%) [2]: 100%; LOLRI, herbicidal effect in percent (%) (Lolium rigidum (LOLRI)): 90%; herbicidal effect MATIN [4]: 90%; herbicidal effect KCHSC [6]: 90%
24 | Cc1cc(-c2nc3ncsc3cc2C)c(C)s1 [Example I-197] |  | 100% | 100% | 90% |  | herbicidal effect AMARE [7]: 90%; herbicidal effect KCHSC [6]: 90%
25 | Fc1ccccc1-c1nc2nc(S)sc2cc1Br [Example I-156, 6-bromo-5-(2-fluorophenyl)thiazolo[4,5-b]pyridine-2-thiol] | 90% |  |  |  | 100% | 
26 | CCc1cc2sc(SC)nc2nc1-c1ccccc1C [Example I-106] | 100% |  | 100% |  |  | 
27 | Cc1cc2sc(S(C)(=O)=O)nc2nc1-c1ccccc1 [Example I-080] | 100% | 100% |  | 90% |  | 
28 | COc1nc2nc(-c3ccccc3)c(C)cc2s1 [Example I-006] |  |  |  | 90% | 90% | 
29 | CSc1nc2nc(-c3ccccc3C)c(C)cc2s1 [Example I-043] |  |  | 90% | 90% | 100% | herbicidal effect KCHSC [10]: 90%; herbicidal effect AMARE [7]: 90%; herbicidal effect KCHSC [6]: 90%; DIGSA, herbicidal effect in percent (%) [13]: 90%; herbicidal effect VERPE (Veronica persica (VERPE) [14]): 100%
30 | Cc1nc2nc(-c3ccccc3Cl)c(C)cc2s1 [Example I-103] | 100% | 90% | 90% |  |  | ECHCG, herbicidal effect in percent (%) [2]: 90%; DIGSA, herbicidal effect in percent (%) [13]: 90%
31 | Cc1cnsc1-c1nc2nc(S)sc2cc1Br [Example I-208] |  |  |  | 90% | 100% | 
32 | CCc1cc2sc(S(C)(=O)=O)nc2nc1-c1ccccc1C [Example I-061] | 90% |  |  |  |  | herbicidal effect KCHSC [10]: 90%; herbicidal effect AMARE [7]: 90%; herbicidal effect VERPE (Veronica persica (VERPE) [14]): 90%
33 | Cc1cc2sc([S+](C)[O-])nc2nc1-c1ccccc1Cl (stereo not drawn) [Example I-024] | 100% |  |  |  |  | herbicidal effect KCHSC [10]: 90%; herbicidal effect KCHSC [6]: 100%; herbicidal effect VERPE (Veronica persica (VERPE) [14]): 90%
34 | CCOc1nc2nc(-c3ccccc3F)c(Br)cc2s1 [Example I-101] |  |  |  | 90% |  | 
35 | NC(=O)c1nc2nc(-c3ccccc3F)c(Br)cc2s1 [Example I-154, 6-bromo-5-(2-fluorophenyl)thiazolo[4,5-b]pyridine-2-carboxamide] | 90% | 90% |  | 100% | 90% | herbicidal effect KCHSC [10]: 90%; herbicidal effect AMARE [7]: 90%
